Data taken from patent US20100151001A1, “ETHYNYLATED HETERODINUCLEOSIDE PHOSPHATE ANALOGS, METHOD FOR THE PRODUCTION THEREOF, AND USE THEREOF” (Eberhard Karls Universitat Tubingen, priority 2007, published 2010).

Tests used:
A549/ATCC = assay: cells; type: cell-based; settings: for TGI: A549/ATCC (lung), 100% growth inhibition, 48 h incubation, SRB; for CC50: Homo sapiens, A549, 48 h, read-out: LC50
Method: (§1) Tumor cell lines, whose 100% growth inhibition (TGI) by the compounds according to the invention is determined at various concentrations, serve as the test system. The toxicity (LC50) of the compound to these cells is also determined. On day 0, a series of microtiter plates is inoculated with the tumor cells and preincubated for 24 h. Then the compound according to the invention is added to the cells in five in each case 10-fold diluted concentration, starting from the highest soluble concentration. After incubation for 48 hours, the cells are fixed in situ, washed and dried. Then sulforhodamine B (SRB), a pink dye that binds to the fixed cells, is added and the cells are washed again. The dye that remains represents the adherent cell mass and is determined spectroscopically. The automatically acquired data are evaluated by computer and lead, for the compound according to the invention 5-fluoro-2′-deoxyuridylyl-(5′-5′)-3′-C-ethynylcytidine and 5-fluoro-2′-deoxyuridylyl-(3′-5′)-3′-C-ethynylcytidine, to the following results, the data for the 3′-5′-coupled dimer being shown in bold above the data for the 5′-5′-coupled isomer.

ACHN = assay: cells; type: cell-based; settings: 48 h; for TGI: ACHN (kidneys), 100% growth inhibition, SRB; for CC50: Homo sapiens, ACHN, read-out: LC50
Method: as §1

BT-549 = assay: cells; type: cell-based; settings: for TGI: BT-549 (breast), 100% growth inhibition, 48 h, SRB; for CC50: Homo sapiens, BT-549, 48 h, read-out: LC50
Method: as §1

CAK-1 = assay: cells; type: cell-based; settings: 48 h; for CC50: read-out: LC50; for TGI: CAK-1 (kidneys), 100% growth inhibition, SRB
Method: as §1

DU-145 = assay: cells; type: cell-based; settings: for TGI: DU-145 (prostate), 100% growth inhibition, 48 h, SRB; for CC50: Homo sapiens, DU-145, 48 h, read-out: LC50
Method: as §1

EKVX = assay: cells; type: cell-based; settings: 48 h; for TGI: EKVX (lung), 100% growth inhibition, SRB; for CC50: Homo sapiens, EKVX, read-out: LC50
Method: as §1

HCC-2998 = assay: cells; type: cell-based; settings: for TGI: HCC-2998 (intestine), 100% growth inhibition, 48 h, SRB; for CC50: Homo sapiens, HCC 2998, 48 h, read-out: LC50
Method: as §1

HCT-15 = assay: cells; type: cell-based; settings: for TGI: HCT-15 (intestine), 100% growth inhibition, 48 h, SRB; for CC50: Homo sapiens, HCT-15, 48 h, read-out: LC50
Method: as §1

HOP-92 = assay: cells; type: cell-based; settings: for TGI: HOP-92 (lung), 100% growth inhibition, 48 h, SRB; for CC50: Homo sapiens, HOP-92, 48 h, read-out: LC50
Method: as §1

IGROV1 = assay: cells; type: cell-based; settings: for CC50: Homo sapiens, IGROV-1, 48 h, read-out: LC50; for TGI: IGROV1 (ovaries), 100% growth inhibition, 48 h, SRB
Method: as §1

LOX IMVI = assay: cells; type: cell-based; settings: 48 h; for CC50: Homo sapiens, LOX IMVI, read-out: LC50; for TGI: LOX IMVI (melanoma), 100% growth inhibition, SRB
Method: as §1

MCF7 = assay: cells; type: cell-based; settings: for CC50: Homo sapiens, MCF7, 48 h, read-out: LC50; for TGI: MCF7 (breast), 100% growth inhibition, 48 h, SRB
Method: as §1

NCI-H522 = assay: cells; type: cell-based; settings: for CC50: Homo sapiens, NCI-H522, 48 h, read-out: LC50; for TGI: NCI-H522 (lung), 100% growth inhibition, 48 h, SRB
Method: as §1

SF-295 = assay: cells; type: cell-based; settings: for CC50: Homo sapiens, SF-295, 48 h, read-out: LC50; for TGI: SF-295 (central nervous system), 100% growth inhibition, 48 h, SRB
Method: as §1

SF-539 = assay: cells; type: cell-based; settings: for CC50: Homo sapiens, SF-539, 48 h, read-out: LC50; for TGI: SF-539 (central nervous system), 100% growth inhibition, 48 h, SRB
Method: as §1

SK-MEL-2 = assay: cells; type: cell-based; settings: for LC50: Homo sapiens, SK-MEL-2, 48 h, read-out: LC50; for TGI: SK-MEL-2 (melanoma), 100% growth inhibition, 48 h, SRB
Method: as §1

SNB-75 = assay: cells; type: cell-based; settings: for CC50: Homo sapiens, SNB-75, 48 h, read-out: LC50; for TGI: SNB-75 (central nervous system), 100% growth inhibition, 48 h, SRB
Method: as §1

T-47D = assay: cells; type: cell-based; settings: 48 h; for CC50: Homo sapiens, T47D, read-out: LC50; for TGI: T-47D (breast), 100% growth inhibition, SRB
Method: as §1

Tumor cell lines = assay: Cytostatic action in vitro, comparison over the tumor cell lines; type: cell-based
Method: as §1

[1] = tested on: LOX IMVI melanoma xenograft
Method: A cell suspension of 5×10^6 tumor cells (LOX IMVI, cell line 01/A/1) was implanted subcutaneously in female athymic nude mice (Animal Production Area, Frederick, Md.). Intraperitoneal administration of the active substance began 3 days after tumor implantation. For this, the active substance was administered dissolved in 10% DMSO/common salt solution plus Tween® 80.
Administration was carried out in each case over a four-day period and comprised a total of 5 treatments. The tests were evaluated by determining the T/C values.
For a model based on solid tumors, a T/C value of 40 must be reached to be regarded as effective.

## C#CC1(O)C(COP(=O)(O)OC2C[C@H](n3cc(F)c(=O)[nH]c3=O)O[C@@H]2CO)OC(n2ccc(N)nc2=O)C1O (stereo in doubt) [Example 1, 5-fluoro-2′-deoxyuridylyl-(3′-5′)-3′-C-ethynylcytidine]
A549/ATCC
  TGI: 29.6 µM
  CC50: > 100 µM
ACHN
  TGI: 1.52 µM
  CC50: > 100 µM
BT-549
  TGI: 0.346 µM
  CC50: 6.39 µM
CAK-1
  CC50: > 100 µM
  TGI: 0.0829 µM
DU-145
  TGI: 0.44 µM
  CC50: > 100 µM
EKVX
  TGI: 6.37 µM
  CC50: > 100 µM
HCC-2998
  TGI: 0.109 µM
  CC50: 1.73 µM
HCT-15
  TGI: 15.1 µM
  CC50: > 100 µM
HOP-92
  TGI: 2.18 µM
  CC50: > 100 µM
IGROV1
  CC50: > 100 µM
  TGI: 12.9 µM
LOX IMVI
  CC50: 91.5 µM
  TGI: 0.348 µM
MCF7
  CC50: > 100 µM
  TGI: 0.137 µM
NCI-H522
  CC50: > 100 µM
  TGI: 1.15 µM
SF-295
  CC50: > 100 µM
  TGI: 1.07 µM
SF-539
  CC50: 32.2 µM
  TGI: 0.167 µM
SK-MEL-2
  LC50: 69.5 µM
  TGI: 0.424 µM
SNB-75
  CC50: 4.72 µM
  TGI: 0.882 µM
T-47D
  CC50: > 100 µM
  TGI: 26.7 µM
Tumor cell lines; in vitro, tumor cell lines of the table
  effectiveness compared with the 5′-5′-coupled duplex active substance (example 2): much more effective
Tumor cell lines; often, over the tumor cell lines
  TGI values lower compared with the 5′-5′-coupled isomer: up to 1000 times
[1]; 11.2 mg/kg/injection intraperitoneal, 5 treatments, day 13, nude mice
  optimum T/C value: 16
[1]; 16.75 mg/kg/injection intraperitoneal, 5 treatments, day 11 after tumor implantation, nude mice
  maximum T/C value: 7
[1]; LOX IMVI xenograft, overall conclusion
  in vivo activity in the tumor model: significant in vivo activity

## C#CC1(O)C(COP(=O)(O)OC[C@H]2O[C@@H](n3cc(F)c(=O)[nH]c3=O)CC2O)OC(n2ccc(N)nc2=O)C1O (stereo in doubt) [Example 2, 5-fluoro-2′-deoxyuridylyl-(5′-5′)-3′-C-ethynylcytidine]
A549/ATCC
  TGI: >100 µM
  CC50: > 100 µM
ACHN
  TGI: >100 µM
  CC50: > 100 µM
BT-549
  TGI: 11.6 µM
  CC50: > 100 µM
CAK-1
  CC50: > 100 µM
  TGI: >100 µM
DU-145
  TGI: >100 µM
  CC50: > 100 µM
EKVX
  TGI: >100 µM
  CC50: > 100 µM
HCC-2998
  TGI: 2.95 µM
  CC50: 57.2 µM
HCT-15
  TGI: >100 µM
  CC50: > 100 µM
HOP-92
  TGI: 21.5 µM
  CC50: > 100 µM
IGROV1
  CC50: > 100 µM
  TGI: >100 µM
LOX IMVI
  CC50: ≥ 100 µM
  TGI: 100 µM
MCF7
  CC50: > 100 µM
  TGI: >100 µM
NCI-H522
  CC50: > 100 µM
  TGI: >100 µM
SF-295
  CC50: > 100 µM
  TGI: 20.6 µM
SF-539
  CC50: > 100 µM
  TGI: 2.01 µM
SK-MEL-2
  LC50: 76.4 µM
  TGI: 5.78 µM
SNB-75
  CC50: > 100 µM
  TGI: >100 µM
T-47D
  CC50: > 100 µM
  TGI: >100 µM
